Several values for one entry are separate records, joined by “and”; a condition that tells them apart may be missing. Equal entries are not always repeated.
Tests used:
[1] = system: healthy, consenting adults; test: Qualitative assessment of pharmacokinetics in humans, oral self-administration (Example 23); type: in vivo, human
Experimental: Approximately 60 milligrams of 2-[(1R,6R)-6-isopropenyl-3-methylcyclohex-2-en-1-yl]-3-hydroxy-5-pentylphenolate prepared from crude industrial hemp extract was dissolved in water as described in Example 16, buffered to a pH of 9.1, and added to a 296 milliliter bottle of DASANI® purified water. […] A healthy, consenting adult self-administered the entire bottle of 60 milligrams of 2-[(1R,6R)-6-isopropenyl-3-methylcyclohex-2-en-1-yl]-3-hydroxy-5-pentylphenolate in water orally over 5 to 10 minutes. […] The individual described the psychoactive effect as a pleasant sensation accompanied by both an enhanced ability to focus and elevated alertness.
Approximately 30 milligrams of 2-[(1R,6R)-6-isopropenyl-3-methylcyclohex-2-en-1-yl]-3-hydroxy-5-pentylphenolate prepared from crude industrial hemp extract was dissolved in water, buffered to a pH of 9.1, and added to each of four 296 milliliter bottles of DASANI® purified water. […] Four healthy, consenting adults orally self-administered varying amounts of the four solutions over 5 to 10 minutes.

[2] = Color of phenolate in carbonate/bicarbonate buffer at variable pH (Example 19); type: physicochemical; details: approximately 1 gram-per-liter
Experimental: 1 gram of cannabidiol was dissolved in 6.6 milliliters of 0.5 molar potassium hydroxide in ethanol to produce 2-[(1R,6R)-6-isopropenyl-3-methylcyclohex-2-en-1-yl]-3-hydroxy-5-pentylphenolate. The solution was then diluted with 100 millimolar sodium carbonate in water to a final volume of 50 milliliters to produce a solution comprising 2-[(1R,6R)-6-isopropenyl-3-methylcyclohex-2-en-1-yl]-3-hydroxy-5-pentylphenolate at approximately 20-grams-per-liter. 0.5 milliliters of the 2-[(1R,6R)-6-isopropenyl-3-methylcyclohex-2-en-1-yl]-3-hydroxy-5-pentylphenolate solution was added to each of 25 test tubes containing 9.5 milliliters of 100 millimolar (0.1 M) carbonate/bicarbonate (CO3^2−/HCO3^−) buffer according to Table 1. Each test tube contained approximately 10 milligrams of 2-[(1R,6R)-6-isopropenyl-3-methylcyclohex-2-en-1-yl]-3-hydroxy-5-pentylphenolate at a concentration of approximately 1 gram-per-liter. pH's were confirmed by multiple different measurements.
It was expected that 2-[(1R,6R)-6-isopropenyl-3-methylcyclohex-2-en-1-yl]-3-hydroxy-5-pentylphenolate would reform cannabidiol at pH's below a threshold pH as evidenced by an expected color change from purple (indicative of 2-[(1R,6R)-6-isopropenyl-3-methylcyclohex-2-en-1-yl]-3-hydroxy-5-pentylphenolate) to colorless (indicative of cannabidiol).

[3] = Removal of ethanol in a vacuum oven up to 157° C. (Example 15); type: physicochemical; details: oven under vacuum, ramped to 157° C.; purple taffy-like product
Experimental: 372 grams of crude industrial hemp extract containing approximately 65% cannabidiol was dissolved in ethanol at a weight ratio of 1:2 crude to ethanol. 43.2 grams of potassium hydroxide was slowly added to the hemp extract in ethanol, and the solution was stirred while heating at 55° C. The solution was then placed in an oven under vacuum and slowly ramped to a temperature of 157° C. over the course of approximately 1 hour, at which time heating was discontinued. The solution was then left in the oven under vacuum overnight.
The product produced by ethanol removal in an oven under vacuum was purple with a taffy-like consistency indicative of polymer formation. The product lacked appreciable solubility in water.

[4] = Third-party HPLC cannabinoid profile of olive oil extract of the aqueous solution (Example 24); type: physicochemical
Experimental: Pure cannabidiol was deprotonated and dissolved in water using a strategy similar to those described in Examples 16 and 19. Acetic acid was then added to 100 milliliters of the water, dropwise, until the purple color disappeared to reform cannabidiol. Reprotonated cannabidiol was extracted from the water using 4 milliliters of olive oil. Two 1 milliliter samples of the olive oil were sent to Botanacor Laboratories (Boulder, Colo.) for cannabinoid profile analysis using an Agilent Technologies (Santa Clara, Calif.) High Performance Liquid Chromatography instrument with a diode array detector. Botanacor Laboratories is ISO/IEC 17025 accredited for cannabinoid potency determination.

[5] = Commercial viability of beverages: phenolate solution added to bottled water (Example 21); type: physicochemical
Experimental: 20 milliliters of water was removed from a 1 liter bottle of ESSENTIA® OVERACHIEVING H2O®. ESSENTIA® OVERACHIEVING H2O® contains purified water, sodium bicarbonate, dipotassium phosphate, magnesium sulfate, and calcium chloride, and its pH was determined to be about 9.5. The 20 milliliters of removed water was replaced with 20 milliliters of the 20 gram-per-liter solution of 2-[(1R,6R)-6-isopropenyl-3-methylcyclohex-2-en-1-yl]-3-hydroxy-5-pentylphenolate, which is described in Example 19, and the bottle was sealed using the screw-cap top of the bottle to produce a sealed container containing approximately 400 milligrams of 2-[(1R,6R)-6-isopropenyl-3-methylcyclohex-2-en-1-yl]-3-hydroxy-5-pentylphenolate. The pH of the liquid was measured and determined to be about 10.
5 milliliters of water was removed from a 500 milliliter bottle of DASANI® purified water. DANSANI® purified water contains purified water, magnesium sulfate, potassium chloride, and sodium chloride, and its pH was determined to be about 7.0. The 5 milliliters of removed water was replaced with 5 milliliters of the 20 gram-per-liter solution of 2-[(1R,6R)-6-isopropenyl-3-methylcyclohex-2-en-1-yl]-3-hydroxy-5-pentylphenolate, which is described in Example 19, and the bottle was sealed using the screw-cap top of the bottle to produce a sealed container containing approximately 100 milligrams of 2-[(1R,6R)-6-isopropenyl-3-methylcyclohex-2-en-1-yl]-3-hydroxy-5-pentylphenolate. The pH of the liquid was measured and determined to be about 9.5.
0.5 milliliters of water was removed from a 500 milliliter bottle of DASANI® purified water. […] The pH of the liquid was measured and determined to be about 8.5.

[6] = Adjusting the pH of the phenolate emulsion to 9.1 with sodium bicarbonate (Examples 7 and 8); type: physicochemical; details: emulsion adjusted to pH 9.1, color change and lipid phase separation
Experimental: 1.65 grams of carbon-filtered industrial hemp extract comprising approximately 65% cannabidiol was dissolved in 10 milliliters of 420 millimolar potassium hydroxide in ethanol to convert the cannabidiol into 2-[(1R,6R)-6-isopropenyl-3-methylcyclohex-2-en-1-yl]-3-hydroxy-5-pentylphenolate.
1 gram of cannabidiol isolate was dissolved in 10 milliliters of 380 millimolar potassium hydroxide in ethanol to convert the cannabidiol into 2-[(1R,6R)-6-isopropenyl-3-methylcyclohex-2-en-1-yl]-3-hydroxy-5-pentylphenolate.

[7] = Approximate pKa of cannabidiol by color at varying sodium bicarbonate (Example 20); type: physicochemical; details: from color change at pH 8.0 and 8.3, read-out: pKa of cannabidiol in dilute aqueous solution
Experimental: This example confirms that 2-[(1R,6R)-6-isopropenyl-3-methylcyclohex-2-en-1-yl]-3-hydroxy-5-pentylphenolate is viable for inclusion in beverages formulated for human consumption. 0.5 milliliters of the 20 gram-per-liter solution of 2-[(1R,6R)-6-isopropenyl-3-methylcyclohex-2-en-1-yl]-3-hydroxy-5-pentylphenolate described in Example 19 was diluted with 9.5 milliliters of distilled water comprising varying concentrations of sodium bicarbonate, and color was monitored as shown in Table 2. pH's were confirmed by multiple different measurements.
A color change was visually apparent at a pH of 8.0, and a subtle color change was visually apparent at pH of 8.3.

[8] = Dissolving salts of the phenolate in water (Examples 14 and 17); type: physicochemical; details: salt from 1.4 grams cannabidiol, dried under vacuum; 90 milliliters
Experimental: 1.4 grams of pure cannabidiol was dissolved in 10 milliliters of 0.5 molar potassium hydroxide in ethanol to convert the cannabidiol into 2-[(1R,6R)-6-isopropenyl-3-methylcyclohex-2-en-1-yl]-3-hydroxy-5-pentylphenolate. A potassium salt of 2-[(1R,6R)-6-isopropenyl-3-methylcyclohex-2-en-1-yl]-3-hydroxy-5-pentylphenolate was formed by drying the ethanol solution under vacuum overnight. 90 milliliters of 100 millimolar aqueous sodium carbonate was added to the potassium salt of 2-[(1R,6R)-6-isopropenyl-3-methylcyclohex-2-en-1-yl]-3-hydroxy-5-pentylphenolate.
This example describes a successful attempt to produce a salt of 2-[(1R,6R)-6-isopropenyl-3-methylcyclohex-2-en-1-yl]-3-hydroxy-5-pentylphenolate that readily dissolves in water. A first aliquot from Example 16 was lyophilized to produce salts including a potassium 2-[(1R,6R)-6-isopropenyl-3-methylcyclohex-2-en-1-yl]-3-hydroxy-5-pentylphenolate salt and a sodium 2-[(1R,6R)-6-isopropenyl-3-methylcyclohex-2-en-1-yl]-3-hydroxy-5-pentylphenolate salt. […] The water was centrifuged to remove undissolved salt and to produce an aqueous solution of 2-[(1R,6R)-6-isopropenyl-3-methylcyclohex-2-en-1-yl]-3-hydroxy-5-pentylphenolate concentrate for inclusion in beverages.

[9] = approximately 60 milligrams in 296 mL water, pH 9.1, oral over 5 to 10 minutes, one adult

C=C(C)[C@@H]1CCC(C)=C[C@H]1c1c(O)cc(CCCCC)cc1O [2-[(1R,6R)-6-isopropenyl-3-methylcyclohex-2-en-1-yl]-3-hydroxy-5-pentylphenolate]
onset of a perceptible psychoactive effect [1, 9]: within minutes of ingestion
time of marked perceptible psychoactive effect following ingestion [1, 9]: approximately 30 minutes
individuals reporting rapid onset of a perceptible psychoactive effect within minutes of ingestion ([1]; approximately 100 milligrams per liter, pH 9.1, varying amounts, oral over 5 to 10 minutes, four adults): Three of the four individuals
time to psychoactive effects after ingestion ([1]; dissolved in water, orally administered): less than 5 minutes
color change from purple to colorless ([2]; pH's of 9.1 and above, 0.1 M carbonate/bicarbonate buffer): No color change
stability at high temperatures [3]: unstable at high temperatures
concentration dissolved in water ([4]; worked out from the olive oil samples): about 78 milligrams per liter
appearance of the liquid ([5]; approximately 10 milligrams in 500 milliliter DASANI water, pH about 8.5): transparent and lacked discernable color
appearance of the liquid ([5]; approximately 100 milligrams in 500 milliliter DASANI water, pH about 9.5): transparent and purple
appearance of the liquid ([5]; approximately 400 milligrams in 1 liter ESSENTIA water, pH about 10): purple and transparent

C=C(C)[C@@H]1CCC(C)=C[C@H]1c1c(O)cc(CCCCC)cc1O [cannabidiol, 2-[(1R,6R)-6-isopropenyl-3-methylcyclohex-2-en-1-yl]-5-pentylbenzene-1,3-diol]
pKa ([6]; Example 7, from carbon-filtered industrial hemp extract, read-out: pKa of cannabidiol in water): > 9.1
pKa of cannabidiol in water ([6]; Example 8, from cannabidiol isolate): greater than 9.1
pKa ([2]; Example 19, dilute aqueous solutions, read-out: pKa of cannabidiol): < 9.1
pKa [7]: 8 to 8.5
other cannabinoids in the olive oil samples ([4]; HPLC with diode array detector): did not detect any other cannabinoid
cannabidiol content of olive oil samples ([4]; reprotonated with acetic acid, 100 mL water extracted with 4 mL olive oil, two samples, HPLC): 0.18 % by weight and 0.21 % by weight

C=C(C)[C@@H]1CCC(C)=C[C@H]1c1c([O-])cc(CCCCC)cc1O.[K+] [potassium salt of 2-[(1R,6R)-6-isopropenyl-3-methylcyclohex-2-en-1-yl]-3-hydroxy-5-pentylphenolate]
dissolution in 100 millimolar aqueous sodium carbonate [8]: the majority of the salt remained in the solid phase

Source: patent publication US10959961B2, “Methods of administering anionic cannabinoid molecules dissolved in water” (priority 2018, dated 2021)
